Patent publication US20240270762A1, “PENICILLIN-BINDING PROTEIN INHIBITORS” (priority 2021, published 2024)
In brackets after ≈: the same amount, converted by molar mass.

Legend:
K. pneumoniae 848844 = experiment: microbe, parasite or virus in culture; assay type: cell-based; conditions: Klebsiella pneumoniae, 848844, read-out: MIC K. pneumoniae 848844
A. baumannii ATCC 19606 = experiment: microbe, parasite or virus in culture; assay type: cell-based; conditions: Acinetobacter baumannii, ATCC19606, read-out: MIC, A. baumannii ATCC 19606
N. gonorrhoeae MS11 = experiment: Liquid broth MIC in Fastidious broth; conditions: Neisseria gonorrhoeae, MS11, read-out: Minimum Inhibitory Concentration (MIC), N. gonorrhoeae MS11
E. coli 901C = experiment: microbe, parasite or virus in culture; assay type: cell-based; conditions: Escherichia coli, read-out: MIC E. coli 901C
P. aeruginosa ATCC 35151 = experiment: microbe, parasite or virus in culture; assay type: cell-based; conditions: Pseudomonas aeruginosa, ATCC35151, read-out: MIC P. aeruginosa ATCC 35151
N. gonorrhoeae WHO K = experiment: Liquid broth MIC in Fastidious broth; conditions: Neisseria gonorrhoeae, read-out: Minimum Inhibitory Concentration (MIC), N. gonorrhoeae WHO K
K. pneumoniae UMM = experiment: microbe, parasite or virus in culture; assay type: cell-based; conditions: Klebsiella pneumoniae, read-out: MIC K. pneumoniae UMM
E. coli AG100 = experiment: microbe, parasite or virus in culture; assay type: cell-based; conditions: Escherichia coli, AG100, read-out: MIC E. coli AG100
P. aeruginosa ATCC 27853 = experiment: microbe, parasite or virus in culture; assay type: cell-based; conditions: Pseudomonas aeruginosa, ATCC27853, read-out: MIC P. aeruginosa ATCC 27853
N. gonorrhoeae WHO Z = experiment: Liquid broth MIC in Fastidious broth; conditions: Neisseria gonorrhoeae, read-out: Minimum Inhibitory Concentration (MIC), N. gonorrhoeae WHO Z
K. pneumoniae SI-117 = experiment: microbe, parasite or virus in culture; assay type: cell-based; conditions: Klebsiella pneumoniae, SI117, read-out: MIC K. pneumoniae SI-117
E. coli ATCC 25922 = experiment: microbe, parasite or virus in culture; assay type: cell-based; conditions: Escherichia coli, ATCC25922, read-out: MIC E. coli 25922
[1] = target: T1, PBP2 from Neisseria gonorrhoeae (FA19) (Neisseria gonorrhoeae, UniProt P08149); experiment: Bocillin-FL fluorescence polarization competition binding, N. gonorrhoeae PBP2; conditions: fluorescence polarization competition binding assay using Bocillin-FL, read-out: N. gonorrhoeae PBP2 Potency
T1 construct: made in house
Source text: To determine the ability of boronic acid-based test PBP inhibitors to bind Penicillin Binding Proteins (PBPs), Bocillin-FL (fluorescently-labeled penicillin V; ThermoFisher Scientific) was used in a fluorescence polarization (FP) competition binding assay to assess inhibitor binding to PBP3 from Escherichia coli (K-12), PBP3 from Pseudomonas aeruginosa (PAO1), PBP1a and PBP3 from Acinetobacter baumannii (ATCC 19606), and PBP2 from Neisseria gonorrhoeae (FA19). PBPs were cloned and purified as described previously (E. coli PBP3, King, D. T, et al., ACS Infectious Diseases 2015, 1, 175-184; P. aeruginosa PBP3, Han et. al., PNAS 2010, 107 (51), 22002-22007; A. baumannii PBPs, Penwell et. al., Antimicrob. Agents Chemother. 2015, 59 (3), 1680-1689; N. gonorrhoeae PBP2, Singh et. al., J. Biol. Chem. 2019, 294 (38), 14020-14032). To establish assay conditions for competition binding, enzyme titration/saturation binding experiments were initially performed. Bocillin-FL was prepared at 0.2 μM in a buffer comprised of 50 mM Hepes (pH 8.0), 300 mM NaCl and 10% (v/v) glycerol for reactions with E. coli, P. aeruginosa and N. gonorrhoeae PBPs, and 25 mM Tris (pH 8.0), 200 mM NaCl, 10% (v/v) glycerol and 0.005% (v/v) Tween 20 for reactions with A. baumannii PBPs. Saturation binding was performed by mixing 40 μl of PBP solutions ranging in concentrations from 0-24 μM with 40 μl of the 0.2 μM Bocillin-FL solution, in individual wells of a black 384-well microplate. FP was measured immediately upon mixing (Excitation, 490 nm; Emission, 520 nm; g-factor, 0.96), using a Cytation3 (BioTek) microplate reader and measured continuously for up to 120 minutes. […] The competition binding assay (80 μl final volume) was validated using beta-lactams and PBPs at final concentrations of: 1.5 μM for E. coli PBP3; 0.75 μM for P. aeruginosa PBP3; 1 μM for A. baumannii PBP1a; 0.2 μM for A. baumannii PBP3; and 0.25 μM for N. gonorrhoeae PBP2. Bocillin-FL was at 0.1 μM (0.05 μM with A. baumannii PBP1a) and beta-lactam concentrations ranged from 0-1,000 μM. E. coli PBP3 was incubated with increasing concentrations of ampicillin in a black 384-well microplate (Corning) for 30 minutes. P. aeruginosa PBP3 was incubated for 15 minutes with aztreonam, whereas A. baumannii PBP1a and PBP3 were incubated for 15 minutes with meropenem, and then Bocillin-FL was added followed immediately by the FP measurement for up to 60 minutes. […] The beta-lactam potency was reported as the concentration of beta-lactam required to reduce the amount of PBP bound-Bocillin-FL by 50% (EC50). […] Binding assays for boronic acid PBP inhibitors were performed in an identical fashion for the respective PBPs.

[2] = system: P. aeruginosa (ΔmexAB-oprM); experiment: Broth microdilution MIC in CAMHB; assay type: cell-based; conditions: Pseudomonas aeruginosa; read-out: MIC P. aeruginosa ΔmexAB-oprM
N. gonorrhoeae WHO M = experiment: Liquid broth MIC in Fastidious broth; conditions: Neisseria gonorrhoeae, read-out: Minimum Inhibitory Concentration (MIC), N. gonorrhoeae WHO M
E. coli D22 = experiment: microbe, parasite or virus in culture; assay type: cell-based; conditions: Escherichia coli, D22, read-out: MIC E. coli D22
N. gonorrhoeae WHO X = experiment: Liquid broth MIC in Fastidious broth; conditions: Neisseria gonorrhoeae, read-out: Minimum Inhibitory Concentration (MIC), N. gonorrhoeae WHO X
N. gonorrhoeae FA1090 = experiment: Liquid broth MIC in Fastidious broth; conditions: Neisseria gonorrhoeae, FA1090, read-out: Minimum Inhibitory Concentration (MIC), N. gonorrhoeae FA 1090

T1 sequence (P08149 whole entry): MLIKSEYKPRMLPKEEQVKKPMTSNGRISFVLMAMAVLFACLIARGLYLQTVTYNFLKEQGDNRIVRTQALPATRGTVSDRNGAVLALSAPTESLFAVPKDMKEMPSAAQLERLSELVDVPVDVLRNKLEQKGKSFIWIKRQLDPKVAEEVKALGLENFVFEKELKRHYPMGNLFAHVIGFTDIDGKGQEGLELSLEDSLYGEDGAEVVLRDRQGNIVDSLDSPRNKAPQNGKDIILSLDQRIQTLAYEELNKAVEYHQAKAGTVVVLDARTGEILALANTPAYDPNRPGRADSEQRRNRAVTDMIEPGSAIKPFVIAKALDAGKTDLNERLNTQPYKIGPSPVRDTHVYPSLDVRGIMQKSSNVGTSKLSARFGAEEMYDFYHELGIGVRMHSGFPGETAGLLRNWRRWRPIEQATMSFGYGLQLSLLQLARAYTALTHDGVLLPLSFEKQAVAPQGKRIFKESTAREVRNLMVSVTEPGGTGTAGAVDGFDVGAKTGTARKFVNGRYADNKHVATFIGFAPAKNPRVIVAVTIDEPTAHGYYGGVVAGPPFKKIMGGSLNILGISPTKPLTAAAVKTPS

Compound	MIC (K. pneumoniae 848844)	MIC (A. baumannii ATCC 19606)	MIC (N. gonorrhoeae MS11)	MIC (E. coli 901C)	MIC (P. aeruginosa ATCC 35151)	MIC (N. gonorrhoeae WHO K)	MIC (K. pneumoniae UMM)	MIC (E. coli AG100)	MIC (P. aeruginosa ATCC 27853)	MIC (N. gonorrhoeae WHO Z)	MIC (K. pneumoniae SI-117)	MIC (E. coli ATCC 25922)	EC50 [1]	MIC [2]	MIC (N. gonorrhoeae WHO M)	MIC (E. coli D22)	MIC (N. gonorrhoeae WHO X)	MIC (N. gonorrhoeae FA1090)
CS(=O)(=O)N1CCN(C(=O)N[C@@H](C(=O)N[C@H]2Cc3cccc(C(=O)O)c3OB2O)c2cc(F)c(P(=O)(O)O)c(F)c2)C1=O (single isomer, unassigned) [Example 18]	> 128 µg/mL	32 to 64 µg/mL (≈ 49.5 to 99 µM)	< 1 µg/mL	< 1 µg/mL	2 to 4 µg/mL (≈ 3.09 to 6.19 µM)	< 1 µg/mL	32 to 64 µg/mL (≈ 49.5 to 99 µM)	32 to 64 µg/mL (≈ 49.5 to 99 µM)	> 128 µg/mL	< 1 µg/mL	> 128 µg/mL	32 to 64 µg/mL (≈ 49.5 to 99 µM)	< 10 µM	32 to 64 µg/mL (≈ 49.5 to 99 µM)	< 1 µg/mL	8 to 16 µg/mL (≈ 12.4 to 24.8 µM)	< 1 µg/mL	< 1 µg/mL
CS(=O)(=O)N1CCN(C(=O)NC(C(=O)N[C@H]2Cc3cccc(C(=O)O)c3OB2O)c2ccc(P(=O)(O)O)c(F)c2O)C1=O (stereo partly drawn) [Example 48, (3R)-3-(2-(3-fluoro-2-hydroxy-4-phosphonophenyl)-2-(3-(methylsulfonyl)-2-oxoimidazolidine-1-carboxamido)acetamido)-2-hydroxy-3,4-dihydro-2H-benzo[e][1,2]oxaborinine-8-carboxylic acid]	> 128 µg/mL	> 128 µg/mL	1 to 2 µg/mL (≈ 1.55 to 3.1 µM)	< 1 µg/mL	8 to 16 µg/mL (≈ 12.4 to 24.8 µM)	4 to 8 µg/mL (≈ 6.21 to 12.4 µM)	> 128 µg/mL	> 128 µg/mL	> 128 µg/mL	1 to 2 µg/mL (≈ 1.55 to 3.1 µM)	> 128 µg/mL	> 128 µg/mL	< 10 µM	> 128 µg/mL	< 1 µg/mL	8 to 16 µg/mL (≈ 12.4 to 24.8 µM)	16 to 32 µg/mL (≈ 24.8 to 49.7 µM)	< 1 µg/mL
CC(=O)N1CCC[C@@H]1C(=O)N[C@H](C(=O)N[C@H]1Cc2cccc(C(=O)O)c2OB1O)c1ccc(P(=O)(O)O)cc1 [Example 33, (3R)-3-(2-((R)-1-acetylpyrrolidine-2-carboxamido)-2-(4-phosphonophenyl)acetamido)-2-hydroxy-3,4-dihydro-2H-benzo[e][1,2]oxaborinine-8-carboxylic acid]	> 128 µg/mL	> 128 µg/mL	16 to 32 µg/mL (≈ 28.6 to 57.2 µM)	32 to 64 µg/mL (≈ 57.2 to 114 µM)	8 to 16 µg/mL (≈ 14.3 to 28.6 µM)	16 to 32 µg/mL (≈ 28.6 to 57.2 µM)	> 128 µg/mL	> 128 µg/mL	> 128 µg/mL	16 to 32 µg/mL (≈ 28.6 to 57.2 µM)	> 128 µg/mL	> 128 µg/mL	< 10 µM	> 128 µg/mL	4 to 8 µg/mL (≈ 7.15 to 14.3 µM)	32 to 64 µg/mL (≈ 57.2 to 114 µM)	16 to 32 µg/mL (≈ 28.6 to 57.2 µM)	4 to 8 µg/mL (≈ 7.15 to 14.3 µM)
CCC(=O)NC(C(=O)N[C@H]1Cc2cccc(C(=O)O)c2OB1O)c1ccc(P(=O)(O)O)cc1 (stereo partly drawn) [Example 27, (3R)-2-hydroxy-3-(2-(4-phosphonophenyl)-2-propionamidoacetamido)-3,4-dihydro-2H-benzo[e][1,2]oxaborinine-8-carboxylic acid]	> 128 µg/mL	> 128 µg/mL	16 to 32 µg/mL (≈ 33.6 to 67.2 µM)	8 to 16 µg/mL (≈ 16.8 to 33.6 µM)	8 to 16 µg/mL (≈ 16.8 to 33.6 µM)	16 to 32 µg/mL (≈ 33.6 to 67.2 µM)	> 128 µg/mL	> 128 µg/mL	> 128 µg/mL	16 to 32 µg/mL (≈ 33.6 to 67.2 µM)	> 128 µg/mL	> 128 µg/mL	10 to 50 µM	> 128 µg/mL	4 to 8 µg/mL (≈ 8.4 to 16.8 µM)	32 to 64 µg/mL (≈ 67.2 to 134 µM)	16 to 32 µg/mL (≈ 33.6 to 67.2 µM)	4 to 8 µg/mL (≈ 8.4 to 16.8 µM)
CCN1CCN(C(=O)NC(C(=O)N[C@H]2Cc3cccc(C(=O)O)c3OB2O)c2c(F)cc(P(=O)(O)O)cc2F)C(=O)C1=O (stereo partly drawn) [Example 25, (3R)-3-(2-(2,6-difluoro-4-phosphonophenyl)-2-(4-ethyl-2,3-dioxopiperazine-1-carboxamido)acetamido)-2-hydroxy-3,4-dihydro-2H-benzo[e][1,2]oxaborinine-8-carboxylic acid]	> 128 µg/mL	> 128 µg/mL	< 1 µg/mL	< 1 µg/mL	2 to 4 µg/mL (≈ 3.2 to 6.41 µM)	1 to 2 µg/mL (≈ 1.6 to 3.2 µM)	32 to 64 µg/mL (≈ 51.3 to 103 µM)	32 to 64 µg/mL (≈ 51.3 to 103 µM)	> 128 µg/mL	< 1 µg/mL	> 128 µg/mL	> 128 µg/mL	< 10 µM	32 to 64 µg/mL (≈ 51.3 to 103 µM)	< 1 µg/mL	2 to 4 µg/mL (≈ 3.2 to 6.41 µM)	4 to 8 µg/mL (≈ 6.41 to 12.8 µM)	< 1 µg/mL
